This is an account of results in patent US20240410879A1, “NEMATODE-SEALED CAPSULE, METHOD FOR PRODUCING NEMATODE-SEALED CAPSULE, AND USE OF NEMATODE-SEALED CAPSULE” (NATIONAL INSTITUTES FOR QUANTUM SCIENCE AND TECHNOLOGY, priority 2021, published 2024).

In data set [1] the test system is C. elegans. Description: Hatching inhibitor (FUdR) treatment of adult nematodes: hatching of laid eggs on culture plate and in capsule. In kind it is in vivo, Caenorhabditis elegans. How it is done:
A dose of a chemical agent required to make all eggs laid by a generation treated with the chemical agent unable to hatch varies depending on, for example, the type, the developmental stage or the sex of the nematode, a type of the chemical agent, or a treatment (exposure) time. For example, in a case where an FUdR solution is added to the culture plate and a nematode which is an adult hermaphrodite of C. elegans prior to laying eggs is exposed to the FUdR solution for a day, a sterilization dose at which the hatching rate of the next generation becomes 0% is not less than 0.5 mg/mL. Exposure of the adult nematode prior to laying eggs to the chemical agent of a dose lower than the sterilization dose allows for making adjustment so that only a certain percentage of eggs hatch.
The nematodes were cultured on the plate to which E. coli had been applied, until the nematodes became adult nematodes (before start of egg laying) on the third day after hatching. FUdR solution was added to this nematode culture plate, and the nematodes were cultured for another day. The FUdR solution was prepared by dissolving 5 mg of FUdR powder in 10 mL of sterile ultrapure water and stirring.
Adult nematodes on the fourth day after hatching which had been exposed to a hatching inhibitor for one day were collected together with E. coli from the culture plate with use of the platinum wire picker. Then, the nematodes were dropped in the aqueous sol which was the same as that prepared in Example 1, so that a sterilized adult nematode sol was prepared. Next, a micropipette was used to suck out the nematode sol. The nematode sol was then dropped in a calcium lactate solution which filled a plastic dish, and immersed in the calcium lactate solution for approximately 5 minutes. The hatching inhibitor-treated nematode-encapsulated capsule in which the adult nematodes that had been exposed to the hatching inhibitor and E. coli that would be food were encapsulated. At the end, a sterilized-nematode-encapsulated capsule was taken out from the calcium lactate solution and an outer phase membrane of this capsule was washed with ultrapure water.
An image of a spherical capsule in which approximately 10 adult nematodes on the fourth day after hatching and having undergone a hatching inhibition treatment by exposure to FUdR were encapsulated was captured from above with use of a digital camera attached to a microscope and the spherical capsule was observed, every 24 hours (every day) from immediately after the production of the spherical capsule. […] After one day and also after two days, it was possible to observe a state in which the adult nematodes moved inside the capsule. […]

For data set [2], the system named is C. elegans. The following applies: in vivo. The source says: Next, the nematodes having been grown in the nematode-encapsulated capsule were taken out, and locomotion of the nematodes was observed. As in Example 4, a hatching inhibitor-treated nematode-encapsulated capsule obtained two days after production of the capsule was transferred to a plate A1 with a tweezer, and the capsule was picked a plurality of times with a sterile toothpick, so that the inside of the capsule was exposed.

Data set [3] deals with C. elegans. Description: Chemotaxis assay to volatile substance on nematode trap plate A3, nematodes supplied from nematode-encapsulated capsule (Example 10). In kind it is in vivo, Caenorhabditis elegans. Particulars: capsule supply, mean of two assays, FIG. 19. How it is done: An assay for evaluating response of nematodes to a volatile substance was conducted with use of diacetyl (having a molarity of 11.5 M at 15° C.), which is a kind of volatile substance, and diluted solutions prepared by diluting the diacetyl by two different dilution factors of 10 and 10^5. Note that the assay method was a method using a nematode trap plate. […]
Next, several nematode-encapsulated capsules in which nematode eggs were encapsulated and grown to adult nematodes were each picked with a tip of a micropipette chip, so that an outer phase membrane was broken. […] Thereafter, the number of nematodes caught in the fall-in cavities was counted.
Assuming that the total number of nematodes caught in the two left fall-in cavities filled with the test solution was N1 and the total number of nematodes caught in the two right fall-in cavities filled with the control buffer solution was N2, a value obtained according to the following formula was defined as a chemotaxis index (C.I.). Then, the response was evaluated. […]

For data set [4], the system named is C. elegans. Description: Chemotaxis assay to volatile substance on plate A3, conventional nematode supply method (Comparative Example 2). The data set is classed as in vivo, Caenorhabditis elegans. The following applies: mean of three assays, FIG. 20. How it is done:
Assuming that the total number of nematodes caught in the two left fall-in cavities filled with the test solution was N1 and the total number of nematodes caught in the two right fall-in cavities filled with the control buffer solution was N2, a value obtained according to the following formula was defined as a chemotaxis index (C.I.). Then, the response was evaluated. Chemotaxis index (C. I.)=(N1−N2)/(N1+N2). As Comparative Example, evaluation of response of nematodes was carried out on the basis of a conventionally-known method for supplying nematodes. Used was a plate A3 which was identical to that used in Example 10 and in which two sets of two fall-in cavities were formed on left and right sides in symmetrical positions. A test solution was diluted solutions of diacetyl at two different concentrations as in Example 10. Note that the above dilution was conducted with use of a buffer solution, which served as a control. A nematode liquid containing nematodes having been washed in advance with wash buffer was dropped onto the center of the nematode assay plate, and a liquid component was wiped out with a paper wiper. Then, the nematodes were released on the plate. The plate was covered with a lid and sealed with a paraffin film. […] Thereafter, the number of nematodes caught in the fall-in cavities was counted.

[5] abbreviates: 10-fold diluted solution of diacetyl.
Setting [6] is: 10^5-fold diluted solution of diacetyl.

Take `O=c1[nH]c(=O)n([C@H]2C[C@H](O)[C@@H](CO)O2)cc1F` [FUdR, 5-Fluoro-2′-deoxyuridine]: in data set [1] (FUdR solution 5 mg in 10 mL added to culture plate, adults from third day after hatching cultured another day), the “hatching of eggs laid on culture plate to which FUdR was added” value is on record as “the eggs did not hatch”. The “sterilization dose at which the hatching rate of the next generation becomes 0%” value in data set [1] (FUdR solution added to culture plate, adult hermaphrodite of C. elegans prior to laying eggs exposed for a day) is “not less than 0.5 mg/mL”. Besides, in data set [1] (approximately 10 adults on fourth day after hatching, exposed one day on plate, encapsulated, observed up to two days after production), the “hatching of eggs laid in capsule by adult nematodes exposed to FUdR” value was “did not hatch, and no larvae were observed”. The “hatching result with nematodes cultured for one day in culture solution containing FUdR” value in data set [1] (culture solution containing FUdR instead of culture plate, nematode-encapsulated capsule) was “a result similar to that obtained by culturing on the culture plate to which the FUdR solution was added could be obtained”. Moreover, the “locomotion of adult nematodes escaped from capsule” value in data set [2] is recorded as “No remarkable abnormality in locomotion was observed”.
As to `CC(=O)C(C)=O` [diacetyl], the “Chemotaxis index (C.I.)” value in data set [3] (setting [5]) is on record as “negative”; in data set [3] (setting [6]), “positive”; in data set [4] (setting [5]), “negative”; in data set [4] (setting [6]) it was “positive”.
